Counter-ions that a name gives are not always drawn. Like-named read-outs stand apart in the source and are kept apart here.

Series [1] has as its target muscarinic acetylcholine receptors. Description: inhibition of specific binding of ^3 H-Oxotremorine-M (^3 H-Oxo) in rat cortex. Details: species or system male Wistar rats. The note with it: read-out: Inhibition in vitro OXO BINDING (IC50, concentration which inhibits the specific binding of ^3 H-Oxo by 50%), ^3 H-Oxotremorine 1.0 nM, 30 min at 25° C., pH 7.4, 25-75% inhibition needed for calculation. As for the experimental part: The pharmacological properties of the compounds of the invention can be illustrated by determining their capability to inhibit the specific binding of ^3 H-Oxotremorine-M (^3 H-Oxo).
^3 H-Oxo labels muscarinic receptor in the CNS (with a preference for agonist domaines of the receptors). Three different sites are labelled by ^3 H-Oxo. […] Using the present experimental conditions only the high and medium affinity sites are determined.
The inhibitory effects of compounds on ^3 H-Oxo binding reflects the affinity for muscarinic acetylcholine receptors.
All preparations are performed at 0°-4° C. unless otherwise indicated. Fresh cortex (0.1-1 g) from male Wistar rats (150-250 g) is homogenized for 5-10 s in 10 ml 20 mM Hepes pH: 7.4, with an Ultra-Turrax homogenizer. The homogenizer is rinsed with 10 ml of buffer and the combined suspension centrifuged for 15 min at 40,000×g. The pellet is washed three times with buffer. In each step the pellet is homogenized as before in 2×10 ml of buffer and centrifuged for 10 min at 40,000×g.
The final pellet is homogenized in 20 mM Hepes pH: 7.4 (100 ml per g of original tissue) and used for binding assay. Aliquots of 0.5 ml is added 25 μl of test solution and 25 μl of ^3 H-Oxotremorine (1.0 nM, final concentration) mixed and incubated for 30 min at 25° C. […] After incubation samples are added 5 ml of ice-cold buffer and poured directly onto Whatman GF/C glass fiber filters under suction and immediately washed 2 times with 5 ml of ice-cold buffer. The amount of radioactivity on the filters are determined by conventional liquid scintillation counting. Specific binding is total binding minus non specific binding.
Test substances are dissolved in 10 ml water (if necessary heated on a steambath for less than 5 minutes) at a concentration of 2.2 mg/ml. 25-75% inhibition of specific binding must be obtained before calculation of IC50.
[formula] where Co is specific binding in control assays and Cx is the specific binding in the test assay. (The calculations assume normal mass-action kinetics).

The conditions of series [2]: in vivo; cited from earlier work.
Series [3] deals with central and peripheral muscarinic effects. The note with it: in vivo; cited from earlier work.
For series [4] the following is noted: in vivo; cited from earlier work. The source holds these as a separate data set.
Series [5] addresses muscarinic receptor in the CNS. The note with it: read-out: affinity of ^3 H-Oxo site, cited from earlier work.

As to `CCCCCCOc1nccnc1[C@H]1CN2CC[C@@H]1C2` (relative stereo) [Compound 27, Endo-3-(3-hexyloxypyrazinyl)-1-azabicyclo[2.2.2]heptane hydrochlorid hemihydrate], the IC50 in series [1] was 0.046 µM.
Same read-out and setting: the same measure for `CCCCCCOc1nccnc1[C@@H]1CN2CC[C@@H]1C2` (relative stereo) [Compound 28, Exo-3-(3-hexyloxypyrazinyl)-1-azabicyclo[2.2.1]heptane hydrochloride]: 0.0056 µM.
Take `COC(=O)C1=CCCN(C)C1` [Arecoline, methyl 1-methyl-1,2,5,6-tetrahydropyridine-3-carboxylate]: in series [2], the toxicity result is “rather toxic”. In series [3], the “separation between central and peripheral muscarinic effects” value is “small separation”. Besides, the biological half life result in series [4] was “very short”.
`FC(F)(F)C(F)(F)C(F)(F)C(F)(F)CCOc1nccnc1C1=CN2CCC1CC2` [Compound 24, 3-(3-(3,3,4,4,5,5,6,6,6)nonafluorohexyloxypyrazinyl)-1-azabicyclo[2.2.2]oct-2-ene hydrochloride]: the IC50 in series [1] is 0.49 µM.
Turning to `CCCCCOc1nccnc1C1CN2CCC1CC2` (stereo not shown) [Compound 25, 3-(3-Pentyloxypyrazinl)-1-azabicyclo[2.2.2]octane hydrochloride], the IC50 in series [1] was 0.006 µM.
Regarding `C[N+](C)(C)CC#CCN1CCCC1=O` [^3 H-Oxo], the Kd in series [5] (first of three sites (high affinity)) was 0.0018 µM; in series [5] (second of three sites (medium affinity)), 0.02 µM; in series [5] (third of three sites, not determined under the present conditions), 3 µM.
